Laboratory results taken from the NIST ThermoML archive (doi:10.1021/je700139p).
± gives the expanded uncertainty stated by the source.

Test: activity coefficient (dimensionless); of the first substance listed, at infinite dilution; xn = mol fraction of the nth substance listed
Settings: 101 kPa, Liquid, Chromatography, x1 = 0

SMILES | activity coefficient (333.15 K) | activity coefficient (343.15 K) | activity coefficient (353.15 K) | activity coefficient (363.15 K) | activity coefficient (373.15 K)
Cc1ccccc1C [1,2-dimethylbenzene] + O=S1(=O)CCCC1 | 4.57 ± 0.31 | 4.39 ± 0.3 | 4.28 ± 0.29 | 4.17 ± 0.28 | 4.04 ± 0.28
Cc1cccc(C)c1 [1,3-dimethylbenzene] + O=S1(=O)CCCC1 | 5.35 ± 0.36 | 5.13 ± 0.35 | 4.98 ± 0.34 | 4.77 ± 0.33 | 4.65 ± 0.32
Cc1ccc(C)cc1 [1,4-dimethylbenzene] + O=S1(=O)CCCC1 | 5.51 ± 0.38 | 5.25 ± 0.36 | 5.11 ± 0.35 | 4.88 ± 0.33 | 4.76 ± 0.32
c1ccccc1 [benzene] + O=S1(=O)CCCC1 | 2.32 ± 0.16 | 2.3 ± 0.16 | 2.28 ± 0.15 | 2.26 ± 0.15 | 2.25 ± 0.15
CCCCCCCCCC [decane] + O=S1(=O)CCCC1 | 147 ± 10 | 126 ± 8.6 | 107 ± 7.3 | 92.2 ± 6.3 | 79.8 ± 5.5
CCc1ccccc1 [ethylbenzene] + O=S1(=O)CCCC1 | 4.82 ± 0.33 | 4.65 ± 0.32 | 4.48 ± 0.3 | 4.35 ± 0.3 | 4.26 ± 0.29
CCCCCCC [heptane] + O=S1(=O)CCCC1 | 60.3 ± 4.1 | 53.1 ± 3.6 | 47.6 ± 3.3 | 41.2 ± 2.8 | 38.5 ± 2.6
CCCCCCCC [octane] + O=S1(=O)CCCC1 | 80.7 ± 5.5 | 70.5 ± 4.8 | 61.7 ± 4.2 | 54.3 ± 3.7 | 48.6 ± 3.3
Cc1ccccc1 [toluene] + O=S1(=O)CCCC1 | 3.46 ± 0.23 | 3.38 ± 0.23 | 3.29 ± 0.22 | 3.23 ± 0.22 | 3.2 ± 0.22
